{"source": "paper PMC6151695", "about": "“Novel Selective Estrogen Receptor Ligand Conjugates Incorporating Endoxifen-Combretastatin and Cyclofenil-Combretastatin Hybrid Scaffolds: Synthesis and Biochemical Evaluation” (Molecules : A Journal of Synthetic Chemistry and Natural …, 2017)", "key": {"[1]": {"system": "A498", "assay": "NCI60 in vitro screen, Renal cancer", "type": "cell-based, human"}, "[2]": {"system": "TK-10", "assay": "NCI60 in vitro screen, Renal cancer", "type": "cell-based, human"}, "[3]": {"system": "HCT-15", "assay": "NCI60 in vitro screen, Colon Cancer", "type": "cell-based, human"}, "[4]": {"system": "MDA-MB-468", "assay": "NCI60 in vitro screen, Breast cancer", "type": "cell-based, human"}, "[5]": {"system": "SK-MEL-2", "assay": "NCI60 in vitro screen, Melanoma", "type": "cell-based, human"}, "[6]": {"system": "ACHN", "assay": "NCI60 in vitro screen, Renal cancer", "type": "cell-based, human"}, "[7]": {"system": "SN12C", "assay": "NCI60 in vitro screen, Renal cancer", "type": "cell-based, human"}, "[8]": {"system": "MCF-7 cells", "details": "human"}, "[9]": {"system": "NCI-H226", "assay": "NCI60 in vitro screen, Non-Small Cell Lung Cancer", "type": "cell-based, human"}, "[10]": {"system": "SF295", "assay": "NCI60 in vitro screen, CNS Cancer", "type": "cell-based, human"}, "[11]": {"system": "BT-549", "assay": "NCI60 in vitro screen, Breast cancer", "type": "cell-based, human"}, "[12]": {"assay": "physchem", "details": "buffer"}, "[13]": {"system": "A549/ATCC", "assay": "NCI60 in vitro screen, Non-Small Cell Lung Cancer", "type": "cell-based, human"}, "[14]": {"system": "MCF-7 human breast cancer cell line", "assay": "Alamar Blue assay for antiproliferative effects", "type": "cell-based", "details": "Homo sapiens, MCF7, 72 h, MCF-7, 72 h, Alamar Blue; read-out: IC50 (μM), antiproliferative effects"}, "[15]": {"system": "SNB-75", "assay": "NCI60 in vitro screen, CNS Cancer", "type": "cell-based, human"}, "[16]": {"system": "SK-MEL-5", "assay": "NCI60 in vitro screen, Melanoma", "type": "cell-based, human"}, "[17]": {"system": "HS 578T", "assay": "NCI60 in vitro screen, Breast cancer", "type": "cell-based, human"}, "[18]": {"system": "NCI-H460", "assay": "NCI60 in vitro screen, Non-Small Cell Lung Cancer", "type": "cell-based, human"}, "[19]": {"system": "MDA-MB-435", "assay": "NCI60 in vitro screen, Melanoma", "type": "cell-based, human"}, "[20]": {"system": "UO-31", "assay": "NCI60 in vitro screen, Renal cancer", "type": "cell-based, human"}, "[21]": {"assay": "in vitro", "details": "human"}, "[22]": {"system": "OVCAR-5", "assay": "NCI60 in vitro screen, Ovarian cancer", "type": "cell-based, human"}, "[23]": {"system": "UACC-62", "assay": "NCI60 in vitro screen, Melanoma", "type": "cell-based, human"}, "[24]": {"system": "60 cancer cell lines", "assay": "NCI 60 cell line screen, whole panel", "type": "cell-based, human"}, "[25]": {"system": "EKVX", "assay": "NCI60 in vitro screen, Non-Small Cell Lung Cancer", "type": "cell-based, human"}, "[26]": {"system": "OVCAR-4", "assay": "NCI60 in vitro screen, Ovarian cancer", "type": "cell-based, human"}, "[27]": {"system": "SK-MEL-28", "assay": "NCI60 in vitro screen, Melanoma", "type": "cell-based, human"}, "[28]": {"system": "HCT-116", "assay": "NCI60 in vitro screen, Colon Cancer", "type": "cell-based, human"}, "[29]": {"system": "SF539", "assay": "NCI60 in vitro screen, CNS Cancer", "type": "cell-based, human"}, "[30]": {"system": "PC-3", "assay": "NCI60 in vitro screen, Prostate cancer", "type": "cell-based, human"}}, "note": "Marks after values point to notes of the source that are not given here."}
{"smiles": "CC/C(=C(\\c1ccccc1)c1ccc(OCCN(C)C(=O)CCC(=O)Oc2cc(/C=C\\c3cc(OC)c(OC)c(OC)c3)ccc2OC)cc1)c1ccccc1", "note": "(mixture of isomers) [Compound 16a, N-{2-[4-((Z)-1,2-Diphenylbut-1-enyl)phenoxy]ethyl}-N-methylsuccinamic acid 2-methoxy-5-[(Z)-2-(3,4,5-trimethoxyphenyl)vinyl]phenyl ester]", "values": [{"measurement": "Growth % (10^−5 M)", "setting": "[1]; A498, 10 μM", "result": 29.47, "unit": "%"}, {"measurement": "GI50", "setting": "[1]; Homo sapiens, A498", "result": 58.1, "unit": "nM"}, {"measurement": "GI50", "setting": "[2]; Homo sapiens, TK-10", "result": 589, "unit": "nM"}, {"measurement": "Growth % (10^−5 M)", "setting": "[2]; TK-10, 10 μM", "result": 33.77, "unit": "%"}, {"measurement": "Growth % (10^−5 M)", "setting": "[3]; HCT-15, 10 μM", "result": 0.71, "unit": "%"}, {"measurement": "GI50", "setting": "[3]; Homo sapiens, HCT-15", "result": 24.5, "unit": "nM"}, {"measurement": "inhibition at 10 µM", "setting": "[3]; Homo sapiens, HCT-15, one-dose, 10 μM, read-out: growth inhibition", "result": 99, "unit": "%"}, {"measurement": "GI50", "setting": "[4]; Homo sapiens, MDA-MB-468", "result": 34.3, "unit": "nM"}, {"measurement": "inhibition at 10 µM", "setting": "[4]; Homo sapiens, MDA-MB-468, one-dose, 10 μM, read-out: growth inhibition", "result": 99, "unit": "%"}, {"measurement": "Growth % (10^−5 M)", "setting": "[4]; MDA-MB-468, 10 μM", "result": 0.68, "unit": "%"}, {"measurement": "GI50", "setting": "[5]; Homo sapiens, SK-MEL-2", "result": "> 10000", "unit": "nM"}, {"measurement": "Growth % (10^−5 M)", "setting": "[5]; SK-MEL-2, 10 μM", "result": 37.97, "unit": "%"}, {"measurement": "Growth % (10^−5 M)", "setting": "[6]; 10 μM", "result": 22.73, "unit": "%"}, {"measurement": "GI50", "setting": "[6]; Homo sapiens", "result": 45.5, "unit": "nM"}, {"measurement": "Growth % (10^−5 M)", "setting": "[7]; 10 μM", "result": 31.84, "unit": "%"}, {"measurement": "GI50", "setting": "[7]; Homo sapiens", "result": 57.6, "unit": "nM"}, {"measurement": "cytotoxicity (LDH assay)", "setting": "[8]", "result": 13.2, "unit": "%"}, {"measurement": "GI50", "setting": "[9]; Homo sapiens, NCI-H226", "result": 47.1, "unit": "nM"}, {"measurement": "Growth % (10^−5 M)", "setting": "[9]; NCI-H226, 10 μM", "result": 11.59, "unit": "%"}, {"measurement": "GI50", "setting": "[10]; Homo sapiens, SF-295, SF295", "result": 20.8, "unit": "nM"}, {"measurement": "inhibition at 10 µM", "setting": "[10]; Homo sapiens, SF-295, one-dose, 10 μM, read-out: growth inhibition", "result": 94, "unit": "%"}, {"measurement": "Growth % (10^−5 M)", "setting": "[10]; SF295, 10 μM", "result": 6.21, "unit": "%"}, {"measurement": "Growth % (10^−5 M)", "setting": "[11]; BT-549, 10 μM", "result": 7.07, "unit": "%"}, {"measurement": "GI50", "setting": "[11]; Homo sapiens, BT-549", "result": 43.8, "unit": "nM"}, {"measurement": "inhibition at 10 µM", "setting": "[11]; Homo sapiens, BT-549, one-dose, 10 μM, read-out: growth inhibition", "result": 94, "unit": "%"}, {"measurement": "half-life at 14.6 µg/mL", "setting": "[12]", "result": "> 20", "unit": "h"}, {"measurement": "Growth % (10^−5 M)", "setting": "[13]; 10 μM", "result": 18.56, "unit": "%"}, {"measurement": "GI50", "setting": "[13]; Homo sapiens", "result": 59, "unit": "nM"}, {"measurement": "IC50", "setting": "[14]", "result": 0.09, "unit": "µM"}, {"measurement": "GI50", "setting": "[15]; Homo sapiens, SNB-75", "result": 16.6, "unit": "nM"}, {"measurement": "Growth % (10^−5 M)", "setting": "[15]; SNB-75, 10 μM", "result": 39.46, "unit": "%"}, {"measurement": "GI50", "setting": "[16]; Homo sapiens, SK-MEL-5", "result": 20.1, "unit": "nM"}, {"measurement": "Growth % (10^−5 M)", "setting": "[16]; SK-MEL-5, 10 μM", "result": "−34.34 ^e %"}, {"measurement": "Growth % (10^−5 M)", "setting": "[17]; 10 μM", "result": 17.57, "unit": "%"}, {"measurement": "GI50", "setting": "[17]; Homo sapiens", "result": 25.5, "unit": "nM"}, {"measurement": "GI50", "setting": "[18]; Homo sapiens, NCI-H460", "result": 29.9, "unit": "nM"}, {"measurement": "Growth % (10^−5 M)", "setting": "[18]; NCI-H460, 10 μM", "result": "−6.77 ^e %"}, {"measurement": "GI50", "setting": "[19]; Homo sapiens, MDA-MB-435", "result": "< 10", "unit": "nM"}, {"measurement": "Growth % (10^−5 M)", "setting": "[19]; MDA-MB-435, 10 μM", "result": "−16.61 ^e %"}, {"measurement": "GI50", "setting": "[20]; Homo sapiens, UO-31", "result": 88.4, "unit": "nM"}, {"measurement": "Growth % (10^−5 M)", "setting": "[20]; UO-31, 10 μM", "result": 31.52, "unit": "%"}, {"measurement": "CC50", "setting": "[21]", "result": "> 100000", "unit": "nM"}, {"measurement": "GI50", "setting": "[22]; Homo sapiens, OVCAR-5", "result": 89.4, "unit": "nM"}, {"measurement": "Growth % (10^−5 M)", "setting": "[22]; OVCAR-5, 10 μM", "result": 34.65, "unit": "%"}, {"measurement": "GI50", "setting": "[23]; Homo sapiens, UACC-62", "result": 18.1, "unit": "nM"}, {"measurement": "Growth % (10^−5 M)", "setting": "[23]; UACC-62, 10 μM", "result": 25.13, "unit": "%"}, {"measurement": "IC50", "setting": "[24]; Homo sapiens, 60 cell, read-out: GI50 (IC50) values for most of the 60 cancer cell lines", "result": "10 to 72", "unit": "nM"}, {"measurement": "GI50", "setting": "[24]; Homo sapiens, 60 cell, NCI60 five-dose, read-out: MG-MID (μM), mean of GI50 values over all cell lines", "result": 1.62, "unit": "µM"}, {"measurement": "inhibition at 10 µM", "setting": "[24]; Homo sapiens, 60 cell, one-dose, 10 μM, read-out: growth inhibition in a further 10 cell lines", "result": "80 to 89", "unit": "%"}, {"measurement": "MG% (10^−5 M), Mean Growth % over all cell lines", "setting": "[24]; NCI60 one-dose, 10 μM", "result": 14.74, "unit": "%"}, {"measurement": "Growth % (10^−5 M)", "setting": "[25]; 10 μM", "result": 22.72, "unit": "%"}, {"measurement": "GI50", "setting": "[25]; Homo sapiens", "result": 56.9, "unit": "nM"}, {"measurement": "GI50", "setting": "[26]; Homo sapiens, OVCAR-4", "result": 62.8, "unit": "nM"}, {"measurement": "Growth % (10^−5 M)", "setting": "[26]; OVCAR-4, 10 μM", "result": 30.96, "unit": "%"}, {"measurement": "GI50", "setting": "[27]; Homo sapiens, SK-MEL-28", "result": "< 10", "unit": "nM"}, {"measurement": "Growth % (10^−5 M)", "setting": "[27]; SK-MEL-28, 10 μM", "result": 89.31, "unit": "%"}, {"measurement": "Growth % (10^−5 M)", "setting": "[28]; HCT-116, 10 μM", "result": 1.61, "unit": "%"}, {"measurement": "GI50", "setting": "[28]; Homo sapiens, HCT-116", "result": 15.6, "unit": "nM"}, {"measurement": "inhibition at 10 µM", "setting": "[28]; Homo sapiens, HCT-116, one-dose, 10 μM, read-out: growth inhibition", "result": 98, "unit": "%"}, {"measurement": "GI50", "setting": "[29]; Homo sapiens, SF-539, SF539", "result": 21.3, "unit": "nM"}, {"measurement": "Growth % (10^−5 M)", "setting": "[29]; SF539, 10 μM", "result": "−7.31 ^e %"}, {"measurement": "GI50", "setting": "[30]; Homo sapiens, PC-3", "result": 12, "unit": "nM"}, {"measurement": "Growth % (10^−5 M)", "setting": "[30]; PC-3, 10 μM", "result": 19.1, "unit": "%"}]}
